Data reported in patent publication US12436145B2, “Cryptic antibiotics and methods for detecting bioactive cryptic metabolites” (THE TRUSTEES OF PRINCETON UNIVERSITY, priority 2019, dated 2025).
Values after ≈ are worked out from the molar mass of the structure shown. Like-named read-outs stand apart in the source and are kept apart here.

What was measured:
S. lavendulae = test: Elicitor screening, supernatants in disc diffusion assays against B. subtilis; format: cell-based, Streptomyces lavendulae; conditions: S. lavendulae grown with ~33 μM elicitor, 5 days; supernatant on B. subtilis disc diffusion
Protocol: For the high-throughput-elicitor screening portion of this example, the procedure is described for S. hiroshimensis. An identical procedure was used for S. lavendulae and A. keratiniphila. […] The culture was incubated at 30° C./250 rpm for two days. Then, the mycelia cell mass was pelleted by centrifugation, the supernatant discarded, and a stock solution of 100 mg/mL cell mass was generated in R4 medium. The stock solution was used to prepare the appropriate volume (see below) of R4 medium containing 0.5 mg/mL mycelia cell mass in a 250 mL Erlenmeyer flask. The suspension was homogenized by stirring at room temperature. Subsequently, a MultiFlow Dispenser (from Biotek, Inc.) was used to dispense 150 μL of the suspension into each well of six sterile round bottom 96 well plates (from Corning, Inc.). Candidate elicitors were added from a commercially-available 502-member Natural Products Library (from Enzo Life Sciences, Inc.) using a CYBI-WELL™ automated liquid transfer robot (from CyBio AG). A volume of 0.5 μL was transferred from the compound library into each well to give a final concentration of ^˜33 μM. […]
The resulting agar plates were assessed visually, and subsequently examined visually for halos. To generate FIG. 2, the halo diameter, if any, was measured and categorized as none (n), weak (w), medium (m), or strong (s) inhibition. […]

A. baumannii ATCC 19606 = test: Minimal inhibitory concentration (CLSI methods); format: cell-based, Acinetobacter baumannii
Protocol: (§1) Antibacterial assays with taylorflavin B (8) were carried out by Micromyx, LLC in accordance with methods from the Clinical and Laboratory Standards Institute. Minimal inhibitory concentrations were determined with the following strains: E. coli ATCC 25922, A. baumannii ATCC 19606, V. cholerae BAA-2163, N. gonorrhoeae ATCC 49226, P. aeruginosa ATCC 27853, K. pneumoniae MMX 214. S. aureus ATCC 29213, S. aureus MMX 2011, S. pneumoniae ATCC 49619, S. pyogenes MMX 6253, S. agalactiae MMX 6189, E. faecalis ATCC 29212, E. faecalis MMX 486, B. subtilis ATCC 6633, C. difficile ATCC 700057, B. fragilis ATCC 25285. Assays with taylorflavin A (7) were carried in-house according to the same protocols.

V. cholerae BAA-2163 = test: Minimal inhibitory concentration (CLSI methods); format: cell-based, Vibrio cholerae
Protocol: as §1

B. fragilis ATCC 25285 = test: Minimal inhibitory concentration (CLSI methods); format: cell-based
Protocol: as §1

B. subtilis ATCC 6633 = test: Minimal inhibitory concentration (CLSI methods); format: cell-based
Protocol: as §1

C. difficile ATCC 700057 = test: Minimal inhibitory concentration (CLSI methods); format: cell-based
Protocol: as §1

E. coli ATCC 25922 = test: Minimal inhibitory concentration (CLSI methods); format: cell-based
Protocol: as §1

E. faecalis ATCC 29212 = test: Minimal inhibitory concentration (CLSI methods); format: cell-based; conditions: E. faecalis VSE
Protocol: as §1

E. faecalis MMX 486 = test: Minimal inhibitory concentration (CLSI methods); format: cell-based; conditions: E. faecalis VRE
Protocol: as §1

K. pneumoniae MMX 214 = test: Minimal inhibitory concentration (CLSI methods); format: cell-based
Protocol: as §1

[1] = test system: N. gonorrhoeae ATCC 49226; test: Minimal inhibitory concentration (CLSI methods); format: cell-based
Protocol: as §1

P. aeruginosa ATCC 27853 = test: Minimal inhibitory concentration (CLSI methods); format: cell-based
Protocol: as §1

S. agalactiae MMX 6189 = test: Minimal inhibitory concentration (CLSI methods); format: cell-based
Protocol: as §1

S. aureus ATCC 29213 = test: Minimal inhibitory concentration (CLSI methods); format: cell-based
Protocol: as §1

S. aureus MMX 2011 = test: Minimal inhibitory concentration (CLSI methods); format: cell-based; conditions: S. aureus MRSA
Protocol: as §1

S. pneumoniae ATCC 49619 = test: Minimal inhibitory concentration (CLSI methods); format: cell-based; conditions: S. pneumoniae PSPP
Protocol: as §1

S. pyogenes MMX 6253 = test: Minimal inhibitory concentration (CLSI methods); format: cell-based
Protocol: as §1

[2] = test system: collection of Gram-positive bacteria; test: Antibacterial assays, Gram-positive panel; format: cell-based
Protocol: as §1

E. coli = test: In-house bioactivity assays of induced peaks and purified taylorflavins; format: cell-based
S. hiroshimensis A18 = test: Validation of elicitor: disc diffusion assay of culture extracts on E. coli ZSR638; format: cell-based, Streptomyces hiroshimensis; conditions: S. hiroshimensis culture induced by 33 μM atenolol; uninduced control none
Protocol: Seed cultures of S. hiroshimensis A18 were prepared as described for the HiTES screen above. […] A control flask was prepared containing the same volume of DMSO, rather than atenolol. The culture was incubated at 30° C./200 rpm. […] The organic phases were combined, divided in two, and dried in vacuo.
For the disc diffusion assays, the dried control and atenolol-treated culture extracts were dissolved in 100 μL of DMSO each. Filter paper discs were infused with 30 μL of each sample, allowed to dry, and then placed on a soft LB agar (1% agarose) plate inoculated with E. coli ZSR638 at a concentration of 2×10^6 cells/mL. The agar plate was incubated at 37° C. for 10 h and then inspected visually.

several Vibrio strains = test: Cebulantin bioactivity screen (IC50); format: cell-based; conditions: range over several Vibrio strains
[3] = test system: Gram-positive bacteria tested; test: Cebulantin bioactivity screen; format: cell-based
β-galactosidase = conditions: cited from earlier work

COc1ccc2c(=O)cc(-c3ccccc3OC)oc2c1 [7,2′-dimethoxyflavone]
induction of anti-B. subtilis metabolite(s) (S. lavendulae): appeared to induce synthesis of anti-B. subtilis metabolite(s)

Cn1nc2c(nc1=O)c(=O)n(C)c(=O)n2C [Taylorflavin B, 2-methylfervenulone]
minimal inhibitory concentration (MIC) (A. baumannii ATCC 19606): 16 µg/mL (≈ 71.7 µM) | minimal inhibitory concentration (MIC) (V. cholerae BAA-2163): 16 µg/mL (≈ 71.7 µM) | minimal inhibitory concentration (MIC) (B. fragilis ATCC 25285): >64 µg/mL | minimal inhibitory concentration (MIC) (B. subtilis ATCC 6633): 64 µg/mL (≈ 287 µM) | minimal inhibitory concentration (MIC) (C. difficile ATCC 700057): >64 µg/mL | minimal inhibitory concentration (MIC) (E. coli ATCC 25922): 16 µg/mL (≈ 71.7 µM) | minimal inhibitory concentration (MIC) (E. faecalis ATCC 29212): >64 µg/mL | minimal inhibitory concentration (MIC) (E. faecalis MMX 486): 64 µg/mL (≈ 287 µM) | minimal inhibitory concentration (MIC) (K. pneumoniae MMX 214): >64 µg/mL | minimal inhibitory concentration (MIC) [1]: 4 µg/mL (≈ 17.9 µM) | minimal inhibitory concentration (MIC) (P. aeruginosa ATCC 27853): >64 µg/mL | minimal inhibitory concentration (MIC) (S. agalactiae MMX 6189): 32 µg/mL (≈ 143 µM) | minimal inhibitory concentration (MIC) (S. aureus ATCC 29213): 64 µg/mL (≈ 287 µM) | minimal inhibitory concentration (MIC) (S. aureus MMX 2011): 64 µg/mL (≈ 287 µM) | minimal inhibitory concentration (MIC) (S. pneumoniae ATCC 49619): 32 µg/mL (≈ 143 µM) | minimal inhibitory concentration (MIC) (S. pyogenes MMX 6253): 32 µg/mL (≈ 143 µM) | growth inhibition of Gram-positive bacteria [2]: did not inhibit the growth | antibiotic activity / inhibition of E. coli growth (E. coli): more potent inhibitor | antibiotic activity / inhibition of E. coli growth (E. coli; listed as 8): antibiotic activity

CC(C)NCC(O)COc1ccc(CC(N)=O)cc1 (stereo not drawn) [atenolol]
zone of inhibition on E. coli agar plates (S. hiroshimensis A18): clear zone of inhibition

C/C=C1\NC(=O)CNC(=O)[C@H](Cc2ccccc2)NC(=O)[C@H](NC(=O)[C@@H](NC(=O)[C@@H]2CCCN2C(=O)CN)[C@@H](C)CC)[C@H](C)SC[C@@H]2NC(=O)[C@H](NC1=O)[C@H](C)SC[C@@H](C(=O)N1CCC[C@H]1C(=O)N[C@@H]1CSC[C@@H](C(=O)O)NC(=O)[C@H](CO)NC(=O)[C@H](C(C)C)NC(=O)/C(=C/C)NC(=O)[C@H](CC(N)=O)NC(=O)[C@H](C)NC1=O)NC(=O)[C@@H]1C[C@@H](O)CN1C(=O)/C(=C/C)NC(=O)CNC(=O)[C@H](Cc1c[nH]c3ccccc13)NC2=O [cebulantin]
IC50 (several Vibrio strains): 8.8 to 29.1 µM | growth-inhibitory activity [3]: no growth-inhibitory activity | IC50 (E. coli (ΔlptD)): 9.7 µM | IC50 (V. parahaemolyticus): 8.8 ± 2.1 µM | IC50 (V. cholerae): 14.1 ± 2.4 µM | IC50 (V. alginolyticus): 24.5 ± 3.2 µM | IC50 (V. ordahi): 27 ± 5.4 µM | IC50 (V. anguillarum): 29.1 ± 8.2 µM | IC50 (P. aeruginose): 47 ± 11.4 µM | IC50 (S. aureus): > 100 µM | IC50 (B. subtilis): > 100 µM

OCc1cc2c([nH]c3ccccc32)c(C(O)CO)n1 (stereo not drawn) [pyridindolol]
inhibitory activity against β-galactosidase (β-galactosidase): inhibitory activity
